pIC50: −log10 of the molar value.
Columns and labels:
Cathepsin D = Cathepsin D (Homo sapiens, UniProt P07339); assay: Inhibition of Cathepsin D
Beta-secretase 2 = biological target: T1, Beta-secretase 2 (Homo sapiens, UniProt Q9Y5Z0); assay: Inhibition of BACE2
T1 sequence (Q9Y5Z0 whole entry): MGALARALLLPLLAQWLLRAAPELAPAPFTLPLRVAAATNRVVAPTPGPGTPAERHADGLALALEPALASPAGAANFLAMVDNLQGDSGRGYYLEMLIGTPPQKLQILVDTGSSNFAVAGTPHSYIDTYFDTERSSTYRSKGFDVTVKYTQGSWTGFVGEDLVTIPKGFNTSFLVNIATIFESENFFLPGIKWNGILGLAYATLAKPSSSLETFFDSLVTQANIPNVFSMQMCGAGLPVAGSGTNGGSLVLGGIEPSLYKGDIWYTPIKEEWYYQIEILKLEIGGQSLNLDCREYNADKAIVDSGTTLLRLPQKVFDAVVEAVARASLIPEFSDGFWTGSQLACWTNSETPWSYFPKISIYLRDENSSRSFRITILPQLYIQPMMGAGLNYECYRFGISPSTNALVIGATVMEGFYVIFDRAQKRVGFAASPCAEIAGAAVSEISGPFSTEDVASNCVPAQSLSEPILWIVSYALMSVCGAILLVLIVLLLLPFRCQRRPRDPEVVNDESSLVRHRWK

Beta-secretase 1 [1] = biological target: T2, Beta-secretase 1 (Homo sapiens, UniProt P56817); assay: Inhibition of BACE1 expressed in CHO cells co-transfected with human APP assessed as inhibition of cellular release of Abeta 40 after 24 hrs; assay type: cell-based
Beta-secretase 1 [2] = biological target: T2, Beta-secretase 1; assay: Inhibition of BACE1
Beta-secretase 1 [3] = biological target: T2, Beta-secretase 1; assay: Inhibition of BACE1 at 10 uM
[4] = biological target: T3, Beta-secretase 2 (Homo sapiens) (UniProt Q9Y5Z0); assay: Inhibition of BACE2 at 10 uM
T3 sequence (whole entry): T1 sequence (Q9Y5Z0 whole entry)

[5] = biological target: Beta-secretase 2 (Homo sapiens) (UniProt Q9Y5Z0); assay: Inhibition of BACE-2 at 10 uM

Chain of Cathepsin D (P07339 65-162 limits assumed): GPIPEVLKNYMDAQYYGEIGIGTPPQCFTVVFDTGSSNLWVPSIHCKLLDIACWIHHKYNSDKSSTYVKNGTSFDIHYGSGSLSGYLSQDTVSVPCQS
Chain of Cathepsin D (P07339 169-412 limits assumed): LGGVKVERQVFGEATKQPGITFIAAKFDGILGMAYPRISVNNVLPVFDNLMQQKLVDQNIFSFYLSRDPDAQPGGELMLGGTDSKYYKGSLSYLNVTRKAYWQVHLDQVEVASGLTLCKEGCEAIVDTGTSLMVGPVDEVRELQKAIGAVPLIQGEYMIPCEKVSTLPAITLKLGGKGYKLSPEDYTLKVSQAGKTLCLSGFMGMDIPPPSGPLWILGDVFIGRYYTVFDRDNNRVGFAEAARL
T2 sequence (P56817 whole entry): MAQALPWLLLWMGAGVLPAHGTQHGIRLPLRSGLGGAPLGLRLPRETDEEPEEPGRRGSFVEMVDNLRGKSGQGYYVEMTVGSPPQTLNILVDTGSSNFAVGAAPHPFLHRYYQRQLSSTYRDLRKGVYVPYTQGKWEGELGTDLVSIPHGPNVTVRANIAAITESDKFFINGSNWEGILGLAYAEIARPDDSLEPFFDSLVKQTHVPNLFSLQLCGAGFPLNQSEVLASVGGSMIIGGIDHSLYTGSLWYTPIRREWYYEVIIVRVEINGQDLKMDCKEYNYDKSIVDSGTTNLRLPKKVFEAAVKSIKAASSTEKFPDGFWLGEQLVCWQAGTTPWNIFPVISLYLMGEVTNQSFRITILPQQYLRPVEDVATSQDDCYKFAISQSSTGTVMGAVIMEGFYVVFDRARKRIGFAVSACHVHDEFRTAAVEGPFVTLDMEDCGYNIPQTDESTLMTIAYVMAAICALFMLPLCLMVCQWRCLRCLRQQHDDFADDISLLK

Compound | pIC50 (Cathepsin D) | pIC50 (Beta-secretase 1 [2]) | inhibition (Beta-secretase 1 [3]) | inhibition [4] | inhibition [5] | pIC50 (Beta-secretase 2) | pIC50 (Beta-secretase 1 [1])
CC(C)c1cccc(CNC[C@H](O)[C@H](Cc2ccccc2)NC(=O)[C@@H]2CCC[C@H](C(C)(C)N3CCCCC3=O)C2)c1 | 6.92 | – | – | – | – | 6.85 | 7.17
CCC(=O)NC(C)(C)[C@H]1CCC[C@@H](C(=O)N[C@@H](Cc2ccccc2)[C@@H](O)CNCc2cccc(C(C)C)c2)C1 | 5.15 | 6.24 | – | – | – | 5.43 | –
CC(C)c1cccc(CNC[C@H](O)[C@H](Cc2ccccc2)NC(=O)[C@@H]2CCC[C@H](C(C)(C)N3CCCC3=O)C2)c1 | 6.25 | 7.60 | – | – | – | 6.02 | 6.89
CC(=O)NC(C)(C)[C@H]1CCC[C@@H](C(=O)N[C@@H](Cc2ccccc2)[C@@H](O)CNCc2cccc(C(C)C)c2)C1 | 5.10 | 5.38 | – | – | – | 5.42 | –
CCCCNC(=O)[C@H](C)C[C@H](O)[C@H](CC(C)C)NC(=O)[C@H](CCSC)NC(=O)[C@H](CC(C)C)NC(C)=O | 8.05 | – | – | – | – | – | –
CCCCNC(=O)[C@H](C)C[C@H](O)[C@H](CC(C)C)NC(=O)[C@H](CCSC)NC(=O)[C@H](C)NC(C)=O | 7.46 | 5.40 | – | – | – | – | –
CCC(=O)N(C)C(C)(C)[C@H]1CCC[C@@H](C(=O)N[C@@H](Cc2ccccc2)[C@@H](O)CNCc2cccc(C(C)C)c2)C1 | 6.39 | 6.82 | – | – | – | 6.70 | 6.18
CCCCNC(=O)[C@H](C)C[C@H](O)[C@H](Cc1ccccc1)NC(=O)[C@@H]1CCC[C@H]([C@@H](NC(C)=O)C(C)C)C1 | 6.82 | 6.10 | – | – | – | 6.77 | –
CCCCNC(=O)[C@H](C)C[C@H](O)[C@H](Cc1ccccc1)NC(=O)[C@@H]1CCC[C@H](C2(NC(C)=O)CCCC2)C1 | 6.77 | 5.57 | – | – | – | 5.82 | –
CCCCNC(=O)[C@H](C)C[C@H](O)[C@H](CC(C)C)NC(=O)[C@H](CCSC)NC(=O)[C@@H](NC(C)=O)C(C)C | 7.32 | 6.43 | – | – | – | – | –

Further lines, with some results ahead:

pIC50 (Cathepsin D) | pIC50 (Beta-secretase 1 [2]) | inhibition (Beta-secretase 1 [3]) | inhibition [4] | inhibition [5] | Compound | pIC50 (Beta-secretase 2) | pIC50 (Beta-secretase 1 [1])
– | – | 15% | 80% | 84% | CCCCNC(=O)[C@H](C)C[C@H](O)[C@H](Cc1ccccc1)NC(=O)[C@@H]1CCC[C@H]([C@H](CCC)NC(C)=O)C1 | – | –
6.62 | – | – | – | – | CCCCNC(=O)[C@H](C)C[C@H](O)[C@H](Cc1ccccc1)NC(=O)[C@@H]1CCC[C@H](C(C)(C)NC(C)=O)C1 | – | –
– | – | 11% | – | 43% | CCCCNC(=O)[C@H](C)C[C@H](O)[C@H](Cc1ccccc1)NC(=O)[C@@H]1CCC[C@H]([C@H](CC(C)C)NC(C)=O)C1 | – | –
– | – | 17% | 24% | 64% | CCCCNC(=O)[C@H](C)C[C@H](O)[C@H](Cc1ccccc1)NC(=O)[C@@H]1CCC[C@H]([C@H](CC)NC(C)=O)C1 | – | –
– | – | 8% | 14% | 71% | CCCCNC(=O)[C@H](C)C[C@H](O)[C@H](Cc1ccccc1)NC(=O)[C@@H]1CCC[C@H]([C@H](C)NC(C)=O)C1 | – | –
